The values that follow come from patent US20150030544A1, “Enzymatic Nanosensor Compositions and Methods” (Northeastern University, priority 2012, published 2015).

The structures appear in SMILES notation.

The conditions of the data set: mice, 75 mg/kg i.p., averaged data of three experiments, model fit.

Description: Enzyme nanosensor solutions were prepared using concentrated O2NS nanosensors (25 μL, ˜10^13 particles) and DAO (50 μL, 1.75IU). As a control, O2NS injections were made with concentrated nanosensors (25 μL) diluted with 50 μL of PBS. […] Mice were weighed, anesthetized with isoflurane (2% isoflurane, 98% oxygen), and placed in the IVIS imager. Two intradermal 30 μL injections of nanosensors were made along the midline of the back. Enzyme nanosensor was injected posterior to O2NS. After injection the animals are imaged every 30 seconds for 30 minutes. […] The mice were imaged for an additional 45 minutes to 1 hour. All animals were sacrificed after the end of the experiment. Three separate experiments were performed with new mice and fresh batches of nanosensor solution.
For data analysis, a region of interest encompassing the injection area was selected and intensity was recorded. […] The difference in normalized signals between the enzymatic nanosensors and O2NS was calculated for each mouse. […] The average data was then fit to a single compartment open model: Equation (1)
Where I is the normalized fluorescent intensity difference, A is a scaling parameter, ka and ke are the absorption and elimination rate constants and tlag is the lag time. The parameters ka, ke, and tlag were fit using the method of residuals and A was fit using least squares minimization for plotting purposes.

Compound `Cl.Cl.NCCc1c[nH]cn1` [histamine, histamine dihydrochloride] showed a lag time of 4.8 min.
